Like-named read-outs stand apart in the source and are kept apart here.
Target: T1, human FXR (NR1H4) (Homo sapiens, UniProt Q96RI1)
T1 sequence (Q96RI1 1-486): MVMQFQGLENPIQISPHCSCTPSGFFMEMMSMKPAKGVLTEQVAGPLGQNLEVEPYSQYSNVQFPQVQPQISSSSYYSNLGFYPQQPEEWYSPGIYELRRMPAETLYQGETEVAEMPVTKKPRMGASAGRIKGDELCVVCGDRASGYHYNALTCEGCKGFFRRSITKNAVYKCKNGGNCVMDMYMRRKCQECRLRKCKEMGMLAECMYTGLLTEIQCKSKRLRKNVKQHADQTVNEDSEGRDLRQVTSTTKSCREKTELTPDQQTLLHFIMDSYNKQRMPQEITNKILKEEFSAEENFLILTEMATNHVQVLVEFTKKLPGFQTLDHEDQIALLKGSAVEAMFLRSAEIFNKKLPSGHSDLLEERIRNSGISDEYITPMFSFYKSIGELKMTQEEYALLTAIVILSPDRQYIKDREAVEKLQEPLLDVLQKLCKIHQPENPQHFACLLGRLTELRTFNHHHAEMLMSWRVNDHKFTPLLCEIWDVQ
Test: Human FXR (NR1H4) Assay: Gal4 promoter driven luciferase reporter transactivation in CHO cells (Indigo Bioscience kit IB00601)
Type: cell-based
Settings: for Emax: CHO, read-out: Efficacy (%); for EC50: Human FXR (NR1H4) reporter assay in CHO cells
Description: Human FXR (NR1H4) Assay Determination of a ligand mediated Gal4 promoter driven transactivation to quantify ligand binding mediated activation of FXR. FXR Reporter Assay kit purchased from Indigo Bioscience (Catalogue number: IB00601) to determine the potency and efficacy of compounds that can induce FXR activation. The principle application of this reporter assay system is to quantify functional activity of human FXR. The assay utilizes non-human mammalian cells, CHO (Chinese hamster ovary) cells engineered to express human NR1H4 protein (referred to as FXR). Reporter cells also incorporate the cDNA encoding beetle luciferase which catalyzes the substrates and yields photon emission. Luminescence intensity of the reaction is quantified using a plate-reading luminometer, Envision. Reporter Cells include the luciferase reporter gene functionally linked to an FXR responsive promoter. Thus, quantifying changes in luciferase expression in the treated reporter cells provides a sensitive surrogate measure of the changes in FXR activity. […] The assay is according to the manufacturer's instructions. […] Retrieve Reporter Cells from −80° C. storage. Perform a rapid thaw of the frozen cells by transferring a 10 ml volume of 37° C. cell recovery medium into the tube of frozen cells. […] Retrieve the tube of Reporter Cell Suspension from the water bath. […] Dispense 90 μl of cell suspension into each well of the 96-well Assay Plate. Transfer the plate into 37° C. incubator, allowing the cells adherent to the bottom of the well. Dilute compounds in Dilution Plate (DP), and administrate to cells at Assay Plate (AP). […] Cells were incubated for additional 22 hours before luciferase activities were measured. Thirty minutes before intending to quantify FXR activity, remove Detection Substrate and Detection Buffer from the refrigerator and place them in a low-light area so that they may equilibrate to room temperature. Remove the plate's lid and discard all media contents by ejecting it into an appropriate waste container. Gently tap the inverted plate onto a clean absorbent paper towel to remove residual droplets. Cells will remain tightly adhered to well bottoms. Add 100 μl of luciferase detection reagent to each well of the assay plate. Allow the assay plate to rest at room temperature for at least 5 minutes following the addition of LDR. Set the instrument (Envision) to perform a single 5 second “plate shake” prior to reading the first assay well. Read time may be 0.5 second (500 mSec) per well.

[1] = efficacy normalized to CDCA set as 100%

SMILES	Emax [1] [%]	EC50 (potency range, read-out: EC50) [nM]	Emax [%]	EC50 (EC50, potency range) [nM]
O=C(O)c1ccc(NC(=O)N2C3CCC2CC(OCc2c(-c4ccccc4OC(F)(F)F)noc2C2CC2)C3)cc1OC(F)(F)F (stereo not drawn) [Example 822]	76	< 10		
COC(=O)c1ccc(NC(=O)N2C3CCC2CC(OCc2c(-c4c(Cl)cccc4Cl)noc2C2CC2)C3)cc1-c1ccccc1 (stereo not drawn) [Example 200]		< 10		
O=C(Nc1cccc(-c2ccccc2)c1)N1C2CCC1CC(OCc1c(-c3c(Cl)cccc3Cl)noc1C1CC1)C2 (stereo not drawn) [Example 729]	148	< 10		
COC(=O)c1ccc2c(c1)CN(C(=O)N1C3CCC1CC(OCc1c(-c4ccccc4OC(F)(F)F)noc1C1CC1)C3)C2 (stereo not drawn) [Example 597]			53	100 to 1000
O=C(O)c1ccc(NC(=O)N2C3CCC2CC(OCc2c(-c4c(Cl)cccc4Cl)noc2C2CC2)C3)nc1 (stereo not drawn) [Example 788]	31	10 to 100		
CC(C)(C)c1ccc(S(=O)(=O)NC(=O)c2cccc(NC(=O)N3C4CCC3CC(OCc3c(-c5c(Cl)cccc5Cl)noc3C3CC3)C4)c2)cc1 (stereo not drawn) [Example 217]		> 1000		
C[C@@H](NC(=O)N1C2CCC1CC(OCc1c(-c3c(Cl)cccc3Cl)noc1C1CC1)C2)c1ccccc1 (stereo partly drawn) [Example 694]		100 to 1000	124	
COC(=O)c1ccc(NC(=O)N2C3CCC2CC(OCc2c(-c4c(Cl)cccc4Cl)noc2C2CC2)C3)cc1-c1ccc(OC)nc1 (stereo not drawn) [Example 784]	102	< 10		
CC(C)(C)c1cccc(NC(=O)N2C3CCC2CC(OCc2c(-c4c(Cl)cccc4Cl)noc2C2CC2)C3)c1 (stereo not drawn) [Example 4]		10 to 100		
O=C(O)c1cccc(F)c1NC(=O)N1C2CCC1CC(OCc1c(-c3ccccc3OC(F)(F)F)noc1C1CC1)C2 (stereo not drawn) [Example 768]	33	> 1000		
O=C(O)c1ccc2nc(NC(=O)N3C4CCC3CC(OCc3c(-c5c(Cl)cccc5Cl)noc3C3CC3)C4)ccc2c1 (stereo not drawn) [Example 789]	57	10 to 100		
CC(C)S(=O)(=O)NC(=O)c1cccc(NC(=O)N2C3CCC2CC(OCc2c(-c4ccccc4OC(F)(F)F)noc2C2CC2)C3)c1 (stereo not drawn) [Example 758]	233	100 to 1000		
C[C@H](NC(=O)N1C2CCC1CC(OCc1c(-c3c(Cl)cccc3Cl)noc1C1CC1)C2)c1ccccc1 (stereo partly drawn) [Example 705]	242	< 10		
CCOC(=O)c1cccc(NC(=O)N2C3CCC2CC(OCc2c(-c4ccccc4OC(F)(F)F)noc2C2CC2)C3)c1 (stereo not drawn) [Example 227]		10 to 100		
COC(=O)c1ccc(NC(=O)N2C3CCC2CC(OCc2c(-c4c(Cl)cccc4Cl)noc2C2CC2)C3)c(C(F)(F)F)c1 (stereo not drawn) [Example 709]	119	100 to 1000		
O=C(NCc1ccc(-c2ccccc2)cc1)N1C2CCC1CC(OCc1c(-c3c(Cl)cccc3Cl)noc1C1CC1)C2 (stereo not drawn) [Example 738]	139	100 to 1000		
CCOC(=O)c1cccnc1NC(=O)N1C2CCC1CC(OCc1c(-c3ccccc3OC(F)(F)F)noc1C1CC1)C2 (stereo not drawn) [Example 767]	136	100 to 1000		
O=C(Nc1nc2ccccc2s1)N1C2CCC1CC(OCc1c(-c3c(Cl)cccc3Cl)noc1C1CC1)C2 (stereo not drawn) [Example 23]		10 to 100		
COC(=O)c1cccc(F)c1NC(=O)N1C2CCC1CC(OCc1c(-c3ccccc3OC(F)(F)F)noc1C1CC1)C2 (stereo not drawn) [Example 763]	211	100 to 1000		
O=C(O)c1ccnc(NC(=O)N2C3CCC2CC(OCc2c(-c4ccccc4OC(F)(F)F)noc2C2CC2)C3)c1 (stereo not drawn) [Example 770]	93	> 1000		
N#Cc1cc(F)cc(NC(=O)N2C3CCC2CC(OCc2c(-c4c(Cl)cccc4Cl)noc2C2CC2)C3)c1 (stereo not drawn) [Example 704]	157	< 10		
O=C(O)c1ccc(NC(=O)N2C3CCC2CC(OCc2c(C4CCC5(CC4)CC5)noc2C2CC2)C3)c(C(F)(F)F)c1 (stereo not drawn) [Example 819]	11	10 to 100		

SMILES	Emax [1] [%]	EC50 (potency range, read-out: EC50) [nM]	Emax [%]	EC50 (EC50, potency range) [nM]
O=C(Nc1ccc(F)c(F)c1)N1C2CCC1CC(OCc1c(-c3c(Cl)cccc3Cl)noc1C1CC1)C2 (stereo not drawn) [Example 699]	232	10 to 100		
O=C(O)c1cccc(NC(=O)N2C3CCC2CC(OCc2c(-c4ccccc4OC(F)(F)F)noc2C2CC2)C3)c1F (stereo not drawn) [Example 746]	156	> 1000		
COC(=O)c1ccc(OC)c(NC(=O)N2C3CCC2CC(OCc2c(-c4c(Cl)cccc4Cl)noc2C2CC2)C3)c1 (stereo not drawn) [Example 724]	137	10 to 100		
O=C(Nc1cccc(C2CCCCC2)c1)N1C2CCC1CC(OCc1c(-c3c(Cl)cccc3Cl)noc1C1CC1)C2 (stereo not drawn) [Example 712]	144	10 to 100		
O=C(Nc1ccccc1C(F)(F)F)N1C2CCC1CC(OCc1c(-c3c(Cl)cccc3Cl)noc1C1CC1)C2 (stereo not drawn) [Example 6]		100 to 1000		
O=C(O)c1ccc(NC(=O)N2C3CCC2CC(OCc2c(-c4c(Cl)cccc4Cl)noc2C2CC2)C3)c(OC(F)(F)F)c1 (stereo not drawn) [Example 717]	149	100 to 1000		
CCOc1cc(C(=O)O)ccc1NC(=O)N1C2CCC1CC(OCc1c(-c3c(Cl)cccc3Cl)noc1C1CC1)C2 (stereo not drawn) [Example 720]	171	< 10		
O=C(O)c1ccc(NC(=O)N2C3CCC2CC(OCc2c(-c4ccccc4C4CC4)noc2C2CC2)C3)cc1-c1ccccc1 (stereo not drawn) [Example 814]	112	10 to 100		
CC(C)S(=O)(=O)NC(=O)c1ccc(NC(=O)N2C3CCC2CC(OCc2c(-c4ccccc4OC(F)(F)F)noc2C2CC2)C3)cc1 (stereo not drawn) [Example 754]	236	100 to 1000		
O=C(Nc1cncc(-c2ccccc2)c1)N1C2CCC1CC(OCc1c(-c3c(Cl)cccc3Cl)noc1C1CC1)C2 (stereo not drawn) [Example 835]	223	< 10		
CCOC(=O)c1ccc2c(c1)CCCN2C(=O)N1C2CCC1CC(OCc1c(-c3ccccc3OC(F)(F)F)noc1C1CC1)C2 (stereo not drawn) [Example 593]		> 1000	40	
COC(=O)c1ccc(F)c(NC(=O)N2C3CCC2CC(OCc2c(-c4ccccc4OC(F)(F)F)noc2C2CC2)C3)c1 (stereo not drawn) [Example 747]	145	100 to 1000		
COc1ccc(C(=O)O)cc1NC(=O)N1C2CCC1CC(OCc1c(-c3c(Cl)cccc3Cl)noc1C1CC1)C2 (stereo not drawn) [Example 725]	140	100 to 1000		
CCOC(=O)c1ccc2nc(NC(=O)N3C4CCC3CC(OCc3c(-c5c(Cl)cccc5Cl)noc3C3CC3)C4)sc2c1 (stereo not drawn) [Example 804]	90	10 to 100		
COC(=O)c1ccc(NC(=O)N2C3CCC2CC(OCc2c(-c4c(Cl)cccc4Cl)noc2C2CC2)C3)c(C2CC2)c1 (stereo not drawn) [Example 800]	54	10 to 100		
COC(=O)c1ccc(NC(=O)N2C3CCC2CC(OCc2c(-c4ccccc4OC(F)(F)F)noc2C2CC2)C3)c(F)c1 (stereo not drawn) [Example 745]		100 to 1000		
O=C(O)c1ccc2c(c1)CCN2C(=O)N1C2CCC1CC(OCc1c(-c3ccccc3OC(F)(F)F)noc1C1CC1)C2 (stereo not drawn) [Example 592]		> 1000	227	
CCOc1cc(C(=O)O)ccc1NC(=O)N1C2CCC1CC(NCc1c(-c3ccccc3OC(F)(F)F)noc1C1CC1)C2 (stereo not drawn) [Example 832]	50	10 to 100		
COc1cc(C(=O)O)c(-c2ccccc2)cc1NC(=O)N1C2CCC1CC(OCc1c(-c3c(Cl)cccc3Cl)noc1C1CC1)C2 (stereo not drawn) [Example 793]	99	< 10		
CCOC(=O)c1cnc2ccc(NC(=O)N3C4CCC3CC(OCc3c(-c5c(Cl)cccc5Cl)noc3C3CC3)C4)cc2c1 (stereo not drawn) [Example 775]	82	< 10		
O=C(O)c1ccc2c(c1)CN(C(=O)N1C3CCC1CC(OCc1c(-c4ccccc4OC(F)(F)F)noc1C1CC1)C3)CC2 (stereo not drawn) [Example 834]	102	100 to 1000		
COC(=O)c1ccc(NC(=O)N2C3CCC2CC(OCc2c(-c4ccccc4OC(F)(F)F)noc2C2CC2)C3)nc1 (stereo not drawn) [Example 764]	230	100 to 1000		

— patent US10597391B2, “Urea-containing isoxazole derivatives as FXR agonists and methods of use thereof” (Enanta Pharmaceuticals, Inc., priority 2016, dated 2020)
